Measured values published in patent publication US4568545A, “Thrombolytic agent” (Amano Seiyaku Kabushiki Kaisha, priority 1982, dated 1986).

Test system: thrombi formed from blood of a healthy adult
Experiment: Thrombolytic activity by the Chandler's loop method
Assay type: biochemical, human
Conditions: 60 minutes, 37° C.
Experimental: Determination of the thrombolytic activity by the Chandler's loop method: the test solution and control solution were prepared by dissolving the protease and urokinase (a product by Otsuka Seiyaku Co.), respectively, in a physiological saline solution. […] The reference solution for the blank test was the physiological saline solution.
Formation of thrombi and measurement of the dissolution thereof were performed in the following manner. Thus, 0.8 ml of the above obtained fresh blood admixed with sodium citrate and 0.1 ml of a 3% aqueous solution of calcium chloride as CaCl2 ·2H2 O were introduced into a tube of polyvinyl chloride resin having an inner diameter of 3 mm and a length of 250 mm and the ends of the tube were connected to each other to form a loop which was put coaxially on a turntable inclined at an angle of 60° and rotated at 37° C. for 30 minutes at a velocity of 17 r.p.m. to form thrombi therein. Thereafter, 0.1 ml of one of the protease solutions, the urokinase solution or the reference solution was introduced into the loop which was rotated under the same conditions as above for 60 minutes. The thrombi remaining in the tube were then taken out and, after fixing with a Bouin's reagent, i.e. a solution prepared by adding 25 ml of a commercially available formalin solution and 5 ml of glacial acetic acid to 75 ml of a saturated aqueous solution of picric acid, the weight of the wet thrombi was measured.

**Q.** How did the “% Thrombolysis” value (concentration in blood 50 Iu/ml blood) turn out when Urokinase was run?
**A.** The value was 8.0%.

**Q.** What about the “% Thrombolysis” value (concentration in blood 100 Iu/ml blood) of the same substance?
**A.** The value was 39.8%.

**Q.** And the “% Thrombolysis” value (concentration in blood 150 Iu/ml blood)?
**A.** Its value is 49.7%.

**Q.** And the “% Thrombolysis” value (concentration in blood 200 Iu/ml blood)?
**A.** The value was 60.3%.

**Q.** What about the “% Thrombolysis” value (concentration in blood 250 Iu/ml blood) of the same substance?
**A.** The value was 66.4%.
